These results are taken from patent publication US20180085392A1, “CYCLODEXTRIN COMPOUNDS FOR THE PREVENTION AND TREATMENT OF AGING” (SENS RESEARCH FOUNDATION, INC., priority 2015, published 2018).

Series [1] deals with human skin cells (human fibroblast cells). Kind of series: Flow cytometry of non-bisretinoid lipofuscin content per cell. Type of series: cell-based. Particulars: for total non-bisretinoid lipofuscin content, Average / total non-bisretinoid lipofuscin content, individual samples 1-4: 2HPβCD for five days. The source says:
Table 3 and FIG. 4 presents data obtained from the treatment of human fibroblast cells with 10 rng/ml 2HPβCD for five days.
The values of Table 3 represent total non-bisretinoid lipofuscin content measured in fluorescent units per cell using a BD FACSCANTO™ II flow cytometer (BD Biosciences, San Jose, Calif.). Measurements were made with a 488 nm blue argon laser with a 530/30 nm FITC band pass filter. The total cell population size for each individual sample measurement was n>15,000 cells.

In series [2] the test system is fibroblasts. Kind of series: Confocal microscopy of lipofuscin in fibroblasts. The note with it: after 8 days (FIG. 5). Type of series: cell-based. The source says: FIG. 5 provides representative confocal photomicrographs wherein the accumulation of lipofuscin in fibroblasts that were either treated with HPβCD or were not treated with HPβCD was fluorescently imaged over the course of 8 days.

For series [3], the system named is THP-1 cells. Kind of series: Acridine orange uptake assay for lysosomal membrane permeabilization. Type of series: cell-based. The protocol: To prepare FIG. 3A-B, THP-1 cells were exposed to different LDL treatments over 7 days and then assessed for lysosomal membrane permeabilization using an acridine orange uptake assay. In FIG. 3A: Acridine orange was excited at 488 nm and emissions recorded at 633 and 520 nm. Higher signal intensities at 520 nm and lower intensities at 633 nm were indicative of lysosomal instability. 7KC-LDL induced lysosomal membrane permeabilization that was attenuated by HβCD that was added to samples on day 6. In FIG. 3B: Flow cytometry signal are presented as intensities as a percent of control (normal LDL-treated). […] Although both the 633 nm and 520 nm signal intensities decreased after HβCD amendment for oxLDL and 7KC-LDL, the decrease in the 520 nm signal was of greater magnitude, thereby indicating increased lysosomal stability.

Series [4] concerns lipofuscin loaded cells (PC cells) (human skin fibroblasts). Kind of series: Autofluorescence of lipofuscin loaded cells (removal of pre-existing lipofuscin). Particulars: PC cells treated day 5 to day 10 and further 48 hours; untreated 13%; p 0.05. Type of series: cell-based. The protocol: FIG. 6 provides representative quantified data of the autofluorescence of lipofuscin loaded cells (PC cells) (human skin fibroblasts, Coriell Cell Repositories, Catalog #GM00498) either untreated or treated with CD in order to track the removal of lipofuscin already present within the PC cells. To perform the assay, PC cells were allowed to grow for 5 days, and the PC cells were treated such that lipofuscin was produced only from day 1 through […]. After 5 days, one population of cells (“treated population”, PC+cyclodextrin in FIG. 6) was treated with cyclodextrin from day 5 to day 10, whereas a second population of cells (“untreated population”, PC only in FIG. 6) remained untreated from day 5 to day 10. On day 10, lipofuscin levels were measured for both cell populations. Following this measurement, the untreated population was placed in media only for 48 hours whereas the treated population was placed in media containing cyclodextrin for 48 hours. 48 hours following this transfer of the cell populations to their respective media, the lipofuscin levels of both the untreated and treated populations were again measured. […] The p-value comparing the percentage differences between the treated and untreated populations was 0.05. […]

The subject of series [5] is fibroblasts. Put plainly: Fluorescence imaging of native lipofuscin in fibroblasts. Type of series: cell-based. Particulars: for native lipofuscin autofluorescence versus untreated cells: fibroblasts maintained 16 days, cyclodextrin during days 1-8 (FIG. 7A-B). On the procedure:
Healthy fibroblasts were passaged (˜P25) and grown to confluency in media. The cells in FIG. 7A (“untreated”) were maintained for 16 days; likewise, the cells in FIG. 7B (“treated”) were maintained for 16 days, however, cyclodextrin was added to the treated cells during days 1-8. Following the 16 day period of cell maintenance, lipofuscin levels were observed using fluorescence imaging as lipofuscin appears as a bright red autofluorescent material during fluorescence-based imaging. […] In order to ascertain whether or not the untreated or treated fibroblasts appeared healthy after the 16 day period of maintenance, both the untreated and treated fibroblasts were imaged with 60× magnification using light microscopy.

Series [6] relates to human skin fibroblasts. Put plainly: CCK-8 cell viability assay. The note with it: days 4, 7 and 10; NC+CD and T versus NC and PC. Type of series: cell-based. The protocol:
In order to determine whether cells were still viable when treated with cyclodextrin, a CCK-8 assay was performed on cells (human skin fibroblasts, Coriell Cell Repositories, Catalog #GM00498) over the course of a 10 days period (FIG. 8). On each day 4, day 7, and day 10, the viability of the cells was ascertained through a CCK-8 assay whereby colorimetric change was indicative of change in the cell viability status. The cell populations tested on day 4, day 7, and day 10 were healthy negative control cells (NC), healthy cells treated with cyclodextrin (NC+CD), lipofuscin loaded cells (PC), and lipofuscin loaded cells treated with cyclodextrin (T). […] FIG. 8 also presents blanks that were used as controls (the blanks appear circled in red in FIG. 8).
(In general: Tetrazolium dyes change colour on reduction, which living cells bring about.)

The test system of series [7] is TFEB. Kind of series: RT-PCR analysis of major lysosome genes. Type of series: cell-based. The note with it: NC w/CD and PC w/CD at day 10 compared to PC. The protocol:
(§1) To address the mechanisms by which cyclodextrin treatment can remove lipofuscin from cells, a RT-PCR analysis of major lysosome genes was performed (FIG. 9). Healthy cells treated with cyclodextrin (“NC w/CD”), lipofuscin loaded cells (“PC”), and lipofuscin loaded cells treated with cyclodextrin (“PC w/CD”) were maintained for 10 days. Following the 10 day period, RT-PCR was performed on each cell population in order to ascertain the regulation status of the major lysosome genes ULK1, TFEB, and HMOX.

Series [8] concerns ULK1. Kind of series: RT-PCR analysis of major lysosome genes. Type of series: cell-based. Particulars: NC w/CD and PC w/CD at day 10 compared to PC. On the procedure: as §1
Series [9] relates to cholesterol present in a cell population. Kind of series: Filipin staining of cellular cholesterol. Type of series: cell-based. Particulars: for cholesterol content of cells by filipin stain: after 4 days of maintenance, 100× (FIG. 11A-D). On the procedure: To further address the mechanism by which cyclodextrin treatment can decrease the concentration of lipofuscin in cells, filipin staining experiments were performed (FIG. 10A-D, FIG. 11A-D, and FIG. 12A-D). Filipin stain can be used to visualize the cholesterol present in a cell population. FIG. 10A and FIG. 10C provide representative photomicrographs of two different cell populations before confluency. Four days after the time the micrographs in FIG. 10A and FIG. 10C were produced, a filipin stain was applied to both cell populations (FIG. 10B and FIG. 10D), however, in the case of FIG. 10D, the cell population was treated with cyclodextrin for 3.5 hours before the filipin staining procedure. […] In order to measure the effects of long term cyclodextrin treatment, untreated healthy cells (NC), healthy cells treated with cyclodextrin (NC w/CD), untreated cells loaded with lipofuscin (PC), and cells loaded with lipofuscin and treated with cyclodextrin (PC w/CD) were filipin stained and imaged at 100× magnification after 4 days of maintenance (FIG. 11A-D) and were filipin stained and imaged at 200× magnification after 9 days of cell maintenance (FIG. 12A-D).

Series [10] concerns NC and PC cell populations. Kind of series: Cell survival after exposure to lysomotropic agent MSDH. The note with it: for cell survival after MSDH: 45 μM MSDH for 42 hours; for cell death after MSDH: 55 μM MSDH for 42 hours. Type of series: cell-based. On the procedure: To further elucidate the mechanism by which cyclodextrin can decrease the concentration of lipofuscin in cells, an assay in which the lysomotropic agent MSDH was administered to cells in order to measure the effect of cyclodextrin administration on cellular health post-MSDH treatment was performed (FIG. 13A-D and FIG. 14A-D). FIG. 13A-D provides representative photomicrographs of NC, PC, NC w/CD, and PC w/CD cell populations after 42 hours of exposure to 45 μM of MSDH. […] FIG. 14A-D provides representative photomicrographs of NC (FIG. 14A), PC (FIG. 14B), NC w/CD (FIG. 14C), and PC w/CD (FIG. 14D) cell populations, respectively, after the populations were exposed to an increased level of MSDH for an increased […] (55 μM for 42 hours). […] The results of FIG. 14A-D were indicative of different degrees of lysosomal membrane cholesterol composition change pending cyclodextrin treatment and lipofuscin levels, with the aged lipofuscin loaded cells treated with cyclodextrin being the most resistant to MSDH treatment (FIG. 14D).

The test system of series [11] is cultured cells. The note with it: cited from earlier work.
Where [12] appears, read: Aged Human Skin Cells + 2-HPCD (Test).
Where [13] appears, read: Human Skin Cells + 2-HPCD (Negative Control + Drug).

Values joined by “and” are separate entries in the source; they are usually repeats but may differ in a detail not shown here. Equal values may be shown once.

Regarding 2-hydroxypropyl-β-cyclodextrin [HPβCD], the “total non-bisretinoid lipofuscin content, Average” value in series [1] (setting [12]) is listed as 6131 fluorescent units per cell; in series [1] (setting [13]) it was 2600 fluorescent units per cell. In addition, the “total non-bisretinoid lipofuscin content, individual samples 1-4” value is 6278 fluorescent units per cell and 6453 fluorescent units per cell and 5982 fluorescent units per cell and 5809 fluorescent units per cell in series [1] (setting [12]); 2552 fluorescent units per cell and 2564 fluorescent units per cell and 2638 fluorescent units per cell and 2647 fluorescent units per cell in series [1] (setting [13]). Besides, the “lipofuscin levels by flow cytometry fluorescence (in words)” value in [1] (aged human skin cells, 5-day treatment (FIG. 4)) is “decreased”. Moreover, in [1] (aged human skin cells, 5-day treatment, p<0.00001), the “reduction of non-bisretinoid lipofuscin” value turned out to be 31.4%. For the same substance, in [2], the “lipopigment accumulation (fluorescence) versus untreated fibroblasts” value is listed as “lower lipopigment accumulation”. Also, the “lysosomal destabilization/permeability caused by 7-ketocholesterol (7KC-LDL)” value in [3] (LDL treatments over 7 days, HβCD added on day 6 (FIG. 3A)) is on record as “attenuated”. For the same substance, the “633 nm/520 nm ratio of acridine orange signal” value in [3] (nLDL, oxLDL and 7KC-LDL (FIG. 3B)) is “improved”. Also, the “decrease in autofluorescence from day 10 to day 12” value in series [4] came out at 23%. Further, the “appearance of treated fibroblasts by light microscopy” value in [5] (after 16 day period, 60× magnification (FIG. 7C-D)) was “appeared to be healthy”. The “native lipofuscin autofluorescence versus untreated cells” value in series [5] is given as “visibly decreased”; in [5] (listed as cyclodextrin), “significantly reduced”. Further, the “cell viability, colorimetric change in CCK-8 assay” value in [6] is “no visible colorimetric difference”. Besides, the “regulation of TFEB” value in series [7] is on record as “no upregulation”. The “regulation of ULK1” value in series [8] is “no upregulation”. The “cholesterol content of cells by filipin stain” value was “increased” in series [9] and “reduction of the cholesterol content” in series [9] (listed as cyclodextrin). In addition, in [9] (long term treatment, after 9 days of maintenance, 200× (FIG. 12A-D)), the “overall cellular levels of cholesterol by filipin stain” value was “increase the overall cellular levels of cholesterol”. For the same substance, in series [9] (treated for 3.5 hours before staining (FIG. 10D vs 10B)), the “total cholesterol by filipin stain” value is “reduction in total cholesterol”. For the same substance, the “cell survival after MSDH” value in series [10] (NC w/CD (healthy cells), untreated NC killed) is “able to survive”; in series [10] (PC w/CD (lipofuscin loaded cells)) it was “able to survive”. Also, the “cell death after MSDH” value in series [10] (NC w/CD (healthy cells), untreated NC complete death) is listed as “moderate death”; in series [10] (PC w/CD (lipofuscin loaded cells), untreated PC moderate death), “no death”.
On to methyl-β-cyclodextrin [MβCD], for which the “efficiency of cholesterol removal compared with β-cyclodextrin” value in series [11] is reported as “more efficient”.
